One block for each compound: values may come before it.
Columns and labels:
[1] = target: T1, BCL-2 (Homo sapiens, UniProt P10415); assay: HTRF BCL-2/BAK assay (Cisbio); type: binding; conditions: recombinant human Tag1-BCL-2 2 nM, Tag2-BAK 10 nM
T1 construct: purchased Cisbio 63ADK000CB01PEG
Method: (§1) Then the pre-mixed anti-Tag1-Eu^3+ and anti-tag2-XL665 were added to the plate and further incubated at room temperature for another 2 hours. The signals ([…]) were read on Envision 2104 instrument. The IC50 for each compound was derived from fitting the signal of 665/615 nM to the increasing compound concentration.
(§2) Using the above assays, the following compounds were tested.

[2] = target: T2, BCL-XL (Homo sapiens, UniProt Q07817); assay: HTRF BCL-XL/BAK assay (Cisbio); type: binding; conditions: recombinant human Tag1-BCL-XL 2 nM, Tag2-BAK 5 nM
T2 construct: purchased Cisbio 63ADK000CB04PEG
T2 sequence (Q07817 whole entry): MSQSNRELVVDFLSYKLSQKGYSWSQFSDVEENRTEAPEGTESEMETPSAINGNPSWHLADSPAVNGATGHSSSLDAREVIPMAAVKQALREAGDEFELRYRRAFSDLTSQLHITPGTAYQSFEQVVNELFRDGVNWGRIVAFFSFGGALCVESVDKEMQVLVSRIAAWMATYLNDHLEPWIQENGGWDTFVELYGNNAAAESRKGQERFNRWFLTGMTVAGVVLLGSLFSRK
Method: as §1, §2

[3] = system: DOHH2 cells; assay: CellTiter-Glo cell proliferation assay, DOHH2 cells; type: cell-based; conditions: Homo sapiens, DOHH-2, 72 hours
Summary of the method: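 GI50 derived from CellTiter-Glo luminescent viability signal. Cells grown in DMEM with 10% FBS received a compound dilution series for 72 h (37 °C, 5% CO2).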

T1 sequence (P10415 whole entry): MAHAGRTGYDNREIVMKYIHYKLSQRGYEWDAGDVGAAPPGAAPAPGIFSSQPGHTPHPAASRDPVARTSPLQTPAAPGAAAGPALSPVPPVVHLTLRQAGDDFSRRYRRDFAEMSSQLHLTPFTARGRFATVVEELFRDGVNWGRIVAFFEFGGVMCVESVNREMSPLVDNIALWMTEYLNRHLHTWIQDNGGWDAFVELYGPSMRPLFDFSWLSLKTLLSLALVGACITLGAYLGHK

Structure (SMILES): O=C(NS(=O)(=O)c1ccc(NCCN2CC3CC2CO3)c([N+](=O)[O-])c1)c1ccc(N2CCN(C3CCCCc4c(Cl)cccc43)CC2)cc1Oc1cnc2[nH]ccc2c1 (stereo not drawn) [Compound 41, 2-((1H-pyrrolo[2,3-b]pyridin-5-yl)oxy)-N-((4-((2-(2-oxa-5-azabicyclo[2.2.1]heptan-5-yl)ethyl)amino)-3-nitrophenyl)sulfonyl)-4-(4-(1-chloro-6,7,8,9-tetrahydro-5H-benzo[7]annulen-5-yl)piperazin-1-yl)benzamide]
IC50 [1]: < 0.02 µM
IC50 [2]: < 0.02 µM
GI50 [3]: 0.05 to 0.5 µM

Structure (SMILES): O=C(NS(=O)(=O)c1ccc(NCCN2CCC3(CC2)COC3)c([N+](=O)[O-])c1)c1ccc(N2CCN(C3CCCCc4c(Cl)cccc43)CC2)cc1Oc1cnc2[nH]ccc2c1 (stereo not drawn) [Compound 42, 2-((1H-pyrrolo[2,3-b]pyridin-5-yl)oxy)-N-((4-((2-(2-oxa-7-azaspiro[3.5]nonan-7-yl)ethyl)amino)-3-nitrophenyl)sulfonyl)-4-(4-(1-chloro-6,7,8,9-tetrahydro-5H-benzo[7]annulen-5-yl)piperazin-1-yl)benzamide]
IC50 [1]: < 0.02 µM
IC50 [2]: < 0.02 µM
GI50 [3]: 0.05 to 0.5 µM

Structure (SMILES): CN1CCc2ccccc2C(N2CCN(c3ccc(C(=O)NS(=O)(=O)c4ccc(NCC5CCOCC5)c([N+](=O)[O-])c4)c(Oc4cnc5[nH]ccc5c4)c3)CC2)C1=O (stereo not drawn) [Compound 45, 2-((1H-pyrrolo[2,3-b]pyridin-5-yl)oxy)-4-(4-(3-methyl-2-oxo-2,3,4,5-tetrahydro-1H-benzo[d]azepin-1-yl)piperazin-1-yl)-N-((3-nitro-4-(((tetrahydro-2H-pyran-4-yl)methyl)amino)phenyl)sulfonyl)benzamide]
IC50 [1]: < 0.02 µM
IC50 [2]: 0.2 to 2 µM
GI50 [3]: 0.5 to 5 µM

Structure (SMILES): O=C(NS(=O)(=O)c1ccc(NCC2CC3(COC3)C2)c([N+](=O)[O-])c1)c1ccc(N2CCN(C3CCCCc4c(Cl)cccc43)CC2)cc1Oc1cnc2[nH]ccc2c1 (stereo not drawn) [Compound 46, 2-((1H-pyrrolo[2,3-b]pyridin-5-yl)oxy)-N-((4-(((2-oxaspiro[3.3]heptan-6-yl)methyl)amino)-3-nitrophenyl)sulfonyl)-4-(4-(1-chloro-6,7,8,9-tetrahydro-5H-benzo[7]annulen-5-yl)piperazin-1-yl)benzamide]
IC50 [1]: < 0.02 µM
IC50 [2]: 0.02 to 0.2 µM
GI50 [3]: < 0.05 µM

Structure (SMILES): O=C(NS(=O)(=O)c1ccc(NCC2CCOCC2)c([N+](=O)[O-])c1)c1ccc(N2CCN(C3CCCCc4c(-c5cccnc5)cccc43)CC2)cc1Oc1cnc2[nH]ccc2c1 (stereo not drawn) [Compound 49, 2-((1H-pyrrolo[2,3-b]pyridin-5-yl)oxy)-N-((3-nitro-4-(((tetrahydro-2H-pyran-4-yl)methyl)amino)phenyl)sulfonyl)-4-(4-(1-(pyridin-3-yl)-6,7,8,9-tetrahydro-5H-benzo[7]annulen-5-yl)piperazin-1-yl)benzamide]
IC50 [1]: < 0.02 µM
IC50 [2]: 0.2 to 2 µM
GI50 [3]: 0.5 to 5 µM

Structure (SMILES): C=C(C)c1cccc2c1CCCCC2N1CCN(c2ccc(C(=O)NS(=O)(=O)c3ccc(NCC4CCOCC4)c([N+](=O)[O-])c3)c(Oc3cnc4[nH]ccc4c3)c2)CC1 (stereo not drawn) [Compound 50, 2-((1H-pyrrolo[2,3-b]pyridin-5-yl)oxy)-N-((3-nitro-4-(((tetrahydro-2H-pyran-4-yl)methyl)amino)phenyl)sulfonyl)-4-(4-(1-(prop-1-en-2-yl)-6,7,8,9-tetrahydro-5H-benzo[7]annulen-5-yl)piperazin-1-yl)benzamide]
IC50 [1]: < 0.02 µM
IC50 [2]: 0.2 to 2 µM
GI50 [3]: 0.05 to 0.5 µM

Structure (SMILES): CC(C)c1cccc2c1CCCCC2N1CCN(c2ccc(C(=O)NS(=O)(=O)c3ccc(NCC4CCOCC4)c([N+](=O)[O-])c3)c(Oc3cnc4[nH]ccc4c3)c2)CC1 (stereo not drawn) [Compound 51, 2-((1H-pyrrolo[2,3-b]pyridin-5-yl)oxy)-4-(4-(1-isopropyl-6,7,8,9-tetrahydro-5H-benzo[7]annulen-5-yl)piperazin-1-yl)-N-((3-nitro-4-(((tetrahydro-2H-pyran-4-yl)methyl)amino)phenyl)sulfonyl)benzamide]
IC50 [1]: < 0.02 µM
IC50 [2]: 0.2 to 2 µM
GI50 [3]: 0.5 to 5 µM

Structure (SMILES): CS(=O)(=O)Nc1cccc2c1CCCCC2N1CCN(c2ccc(C(=O)NS(=O)(=O)c3ccc(NCC4CCOCC4)c([N+](=O)[O-])c3)c(Oc3cnc4[nH]ccc4c3)c2)CC1 (stereo not drawn) [Compound 56, 2-((1H-pyrrolo[2,3-b]pyridin-5-yl)oxy)-4-(4-(1-(methylsulfonamido)-6,7,8,9-tetrahydro-5H-benzo[7]annulen-5-yl)piperazin-1-yl)-N-((3-nitro-4-(((tetrahydro-2H-pyran-4-yl)methyl)amino)phenyl)sulfonyl)benzamide]
IC50 [1]: 0.02 to 0.2 µM
IC50 [2]: > 2 µM
GI50 [3]: > 5 µM

Structure (SMILES): CCP(=O)(CC)c1cccc2c1CCCCC2N1CCN(c2ccc(C(=O)NS(=O)(=O)c3ccc(NCC4CCOCC4)c([N+](=O)[O-])c3)c(Oc3cnc4[nH]ccc4c3)c2)CC1 (stereo not drawn) [Compound 62, 2-((1H-pyrrolo[2,3-b]pyridin-5-yl)oxy)-4-(4-(1-(diethylphosphoryl)-6,7,8,9-tetrahydro-5H-benzo[7]annulen-5-yl)piperazin-1-yl)-N-((3-nitro-4-(((tetrahydro-2H-pyran-4-yl)methyl)amino)phenyl)sulfonyl)benzamide]
IC50 [1]: 0.02 to 0.2 µM
IC50 [2]: > 2 µM
GI50 [3]: > 5 µM

Continued, in another order:

IC50 [1]: < 0.02 µM
IC50 [2]: < 0.02 µM
Structure (SMILES): CN1CC2CC1CN2CCNc1ccc(S(=O)(=O)NC(=O)c2ccc(N3CCN(C4CCCCc5c(Cl)cccc54)CC3)cc2Oc2cnc3[nH]ccc3c2)cc1[N+](=O)[O-] (stereo not drawn) [Compound 43, 2-((1H-pyrrolo[2,3-b]pyridin-5-yl)oxy)-4-(4-(1-chloro-6,7,8,9-tetrahydro-5H-benzo[7]annulen-5-yl)piperazin-1-yl)-N-((4-((2-(5-methyl-2,5-diazabicyclo[2.2.1]heptan-2-yl)ethyl)amino)-3-nitrophenyl)sulfonyl)benzamide]
GI50 [3]: 0.05 to 0.5 µM

IC50 [1]: < 0.02 µM
IC50 [2]: < 0.02 µM
Structure (SMILES): CN1CC2CC1CC2CNc1ccc(S(=O)(=O)NC(=O)c2ccc(N3CCN(C4CCCCc5c(Cl)cccc54)CC3)cc2Oc2cnc3[nH]ccc3c2)cc1[N+](=O)[O-] (stereo not drawn) [Compound 44, 2-((1H-pyrrolo[2,3-b]pyridin-5-yl)oxy)-4-(4-(1-chloro-6,7,8,9-tetrahydro-5H-benzo[7]annulen-5-yl)piperazin-1-yl)-N-((4-(((2-methyl-2-azabicyclo[2.2.1]heptan-5-yl)methyl)amino)-3-nitrophenyl)sulfonyl)benzamide]
GI50 [3]: 0.05 to 0.5 µM

IC50 [1]: 0.02 to 0.2 µM
IC50 [2]: > 2 µM
Structure (SMILES): O=C(NS(=O)(=O)c1ccc(NCC2CCOCC2)c([N+](=O)[O-])c1)c1ccc(N2CCN(C3CCCCc4c(C5=CCCC5)cccc43)CC2)cc1Oc1cnc2[nH]ccc2c1 (stereo not drawn) [Compound 47, 2-((1H-pyrrolo[2,3-b]pyridin-5-yl)oxy)-4-(4-(1-(cyclopent-1-en-1-yl)-6,7,8,9-tetrahydro-5H-benzo[7]annulen-5-yl)piperazin-1-yl)-N-((3-nitro-4-(((tetrahydro-2H-pyran-4-yl)methyl)amino)phenyl)sulfonyl)benzamide]
GI50 [3]: > 5 µM

IC50 [1]: 0.02 to 0.2 µM
IC50 [2]: > 2 µM
Structure (SMILES): O=C(NS(=O)(=O)c1ccc(NCC2CCOCC2)c([N+](=O)[O-])c1)c1ccc(N2CCN(C3CCCCc4c(-c5cn[nH]c5)cccc43)CC2)cc1Oc1cnc2[nH]ccc2c1 (stereo not drawn) [Compound 52, 4-(4-(1-(1H-pyrazol-4-yl)-6,7,8,9-tetrahydro-5H-benzo[7]annulen-5-yl)piperazin-1-yl)-2-((1H-pyrrolo[2,3-b]pyridin-5-yl)oxy)-N-((3-nitro-4-(((tetrahydro-2H-pyran-4-yl)methyl)amino)phenyl)sulfonyl)benzamide]
GI50 [3]: > 5 µM

IC50 [1]: < 0.02 µM
IC50 [2]: < 0.02 µM
Structure (SMILES): O=C(NS(=O)(=O)c1ccc(NCC2CCn3ccnc3C2)c([N+](=O)[O-])c1)c1ccc(N2CCN(C3CCCCc4c(Cl)cccc43)CC2)cc1Oc1cnc2[nH]ccc2c1 (stereo not drawn) [Compound 53, 2-((1H-pyrrolo[2,3-b]pyridin-5-yl)oxy)-4-(4-(1-chloro-6,7,8,9-tetrahydro-5H-benzo[7]annulen-5-yl)piperazin-1-yl)-N-((3-nitro-4-(((5,6,7,8-tetrahydroimidazo[1,2-a]pyridin-7-yl)methyl)amino)phenyl)sulfonyl)benzamide]
GI50 [3]: 0.05 to 0.5 µM

IC50 [1]: < 0.02 µM
IC50 [2]: > 2 µM
Structure (SMILES): O=C(NS(=O)(=O)c1ccc(NCC2CCOCC2)c([N+](=O)[O-])c1)c1ccc(N2CCN(C3CCCCc4c(-c5ccn[nH]5)cccc43)CC2)cc1Oc1cnc2[nH]ccc2c1 (stereo not drawn) [Compound 54, 4-(4-(1-(1H-pyrazol-3-yl)-6,7,8,9-tetrahydro-5H-benzo[7]annulen-5-yl)piperazin-1-yl)-2-((1H-pyrrolo[2,3-b]pyridin-5-yl)oxy)-N-((3-nitro-4-(((tetrahydro-2H-pyran-4-yl)methyl)amino)phenyl)sulfonyl)benzamide]
GI50 [3]: 0.5 to 5 µM

IC50 [1]: < 0.02 µM
IC50 [2]: 0.2 to 2 µM
Structure (SMILES): CC(CO)c1cccc2c1CCCCC2N1CCN(c2ccc(C(=O)NS(=O)(=O)c3ccc(NCC4CCOCC4)c([N+](=O)[O-])c3)c(Oc3cnc4[nH]ccc4c3)c2)CC1 (stereo not drawn) [Compound 61, 2-((1H-pyrrolo[2,3-b]pyridin-5-yl)oxy)-4-(4-(1-(1-hydroxypropan-2-yl)-6,7,8,9-tetrahydro-5H-benzo[7]annulen-5-yl)piperazin-1-yl)-N-((3-nitro-4-(((tetrahydro-2H-pyran-4-yl)methyl)amino)phenyl)sulfonyl)benzamide]
GI50 [3]: 0.5 to 5 µM
